Data: PubChem BioAssay (NCI)
Several values for one entry are separate records, joined by “and”; a condition that tells them apart may be missing. Equal entries are not always repeated.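 Interpolation was linear, between the two tested concentrations surrounding the appropriate level; five concentrations were tested over 48 hours in 96-well plates. Abbreviation: GI50, concentration required for 50% inhibition of growth. The concentration for full growth arrest is given as TGI.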

Assays:
Assay in all cases: NCI tumour cell line growth inhibition, 48 h
786-0 renal = system: 786-0 renal
A498 renal = system: A498 renal
A549 NSCLC = system: A549 NSCLC
ACHN renal = system: ACHN renal
BT-549 breast = system: BT-549 breast
CAKI-1 renal = system: CAKI-1 renal
CCRF-CEM leukemia = system: CCRF-CEM leukemia
COLO 205 colon = system: COLO 205 colon
DU-145 prostate = system: DU-145 prostate
EKVX NSCLC = system: EKVX NSCLC
HCC-2998 colon = system: HCC-2998 colon
HCT-116 colon = system: HCT-116 colon
HCT-15 colon = system: HCT-15 colon
HL-60(TB) leukemia = system: HL-60(TB) leukemia
HOP-62 NSCLC = system: HOP-62 NSCLC
HOP-92 NSCLC = system: HOP-92 NSCLC
HS 578T breast = system: HS 578T breast
HT29 colon = system: HT29 colon
K-562 leukemia = system: K-562 leukemia
KM12 colon = system: KM12 colon
LOX IMVI melanoma = system: LOX IMVI melanoma
M14 melanoma = system: M14 melanoma
MALME-3M melanoma = system: MALME-3M melanoma
MCF7 breast = system: MCF7 breast
MDA-MB-231 breast = system: MDA-MB-231 breast
MDA-MB-435 = system: MDA-MB-435
MDA-N = system: MDA-N
MOLT-4 leukemia = system: MOLT-4 leukemia
NCI-H226 lung = system: NCI-H226 lung
NCI-H23 lung = system: NCI-H23 lung
NCI-H460 lung = system: NCI-H460 lung
NCI-H522 lung = system: NCI-H522 lung
NCI/ADR-RES ovarian = system: NCI/ADR-RES ovarian
OVCAR-3 ovarian = system: OVCAR-3 ovarian
OVCAR-4 ovarian = system: OVCAR-4 ovarian
OVCAR-5 ovarian = system: OVCAR-5 ovarian
OVCAR-8 ovarian = system: OVCAR-8 ovarian
PC-3 prostate = system: PC-3 prostate
RPMI-8226 leukemia = system: RPMI-8226 leukemia
RXF 393 renal = system: RXF 393 renal
SF-268 CNS = system: SF-268 CNS
SF-295 CNS = system: SF-295 CNS
SF-539 CNS = system: SF-539 CNS
SK-MEL-2 melanoma = system: SK-MEL-2 melanoma
SK-MEL-28 melanoma = system: SK-MEL-28 melanoma
SK-MEL-5 melanoma = system: SK-MEL-5 melanoma
SK-OV-3 ovarian = system: SK-OV-3 ovarian
SN12C renal = system: SN12C renal
SNB-19 CNS = system: SNB-19 CNS
SNB-75 CNS = system: SNB-75 CNS
SR leukemia = system: SR leukemia
SW-620 colon = system: SW-620 colon
T-47D breast = system: T-47D breast
TK-10 renal = system: TK-10 renal
U251 CNS = system: U251 CNS
UACC-257 melanoma = system: UACC-257 melanoma
UACC-62 melanoma = system: UACC-62 melanoma
UO-31 renal = system: UO-31 renal
IGROV1 ovarian = system: IGROV1 ovarian

Nc1ccn(C2OC(CO)C(O)C2(F)F)c(=O)n1 (stereo unspecified)
GI50 (786-0 renal): 0.0039 µM | GI50 (A498 renal): 0.0548 µM | GI50 (A549 NSCLC): 0.0158 µM | TGI (A549 NSCLC): > 100 µM | GI50 (ACHN renal): 0.0252 µM and 0.00379 µM | TGI (ACHN renal): 3.48 µM | GI50 (BT-549 breast): 0.0744 µM and 0.0178 µM | TGI (BT-549 breast): > 100 µM | GI50 (CAKI-1 renal): 0.00925 µM | TGI (CAKI-1 renal): 2.55 µM and 21.4 µM | GI50 (CCRF-CEM leukemia): 0.0614 µM and 0.0268 µM | GI50 (COLO 205 colon): 0.568 µM | TGI (COLO 205 colon): > 100 µM | GI50 (DU-145 prostate): 0.0274 µM | TGI (EKVX NSCLC): > 100 µM | GI50 (HCC-2998 colon): 0.94 µM | TGI (HCC-2998 colon): > 100 µM | GI50 (HCT-116 colon): 0.00746 µM | TGI (HCT-116 colon): > 100 µM | GI50 (HCT-15 colon): 2.2 µM | TGI (HCT-15 colon): > 100 µM | GI50 (HL-60(TB) leukemia): 0.0286 µM | TGI (HL-60(TB) leukemia): 0.22 µM | GI50 (HOP-62 NSCLC): 0.0255 µM | TGI (HOP-62 NSCLC): 0.805 µM and 3.16 µM | GI50 (HOP-92 NSCLC): 0.223 µM | GI50 (HS 578T breast): > 100 µM | TGI (HS 578T breast): > 100 µM | TGI (HT29 colon): > 100 µM | GI50 (K-562 leukemia): 0.0824 µM | GI50 (KM12 colon): 2.84 µM | TGI (KM12 colon): > 100 µM | GI50 (LOX IMVI melanoma): 0.0285 µM | TGI (LOX IMVI melanoma): > 100 µM | GI50 (M14 melanoma): 0.00639 µM | TGI (M14 melanoma): 0.148 µM and 0.0249 µM | GI50 (MALME-3M melanoma): 0.0883 µM | GI50 (MCF7 breast): 0.00552 µM | TGI (MCF7 breast): > 100 µM | GI50 (MDA-MB-231 breast): 7.26 µM and 0.924 µM | TGI (MDA-MB-231 breast): > 100 µM | GI50 (MDA-MB-435): 0.0189 µM | TGI (MDA-MB-435): > 100 µM | GI50 (MDA-N): 0.0647 µM | TGI (MDA-N): > 100 µM | GI50 (MOLT-4 leukemia): 0.0441 µM | GI50 (NCI-H226 lung): 0.146 µM and 0.095 µM | TGI (NCI-H226 lung): > 100 µM | GI50 (NCI-H23 lung): 0.00788 µM | GI50 (NCI-H460 lung): 0.00651 µM | GI50 (NCI-H522 lung): 1.35 µM | GI50 (NCI/ADR-RES ovarian): 0.0144 µM | GI50 (OVCAR-3 ovarian): 3.62 µM | TGI (OVCAR-3 ovarian): > 100 µM | GI50 (OVCAR-4 ovarian): > 100 µM | TGI (OVCAR-4 ovarian): > 100 µM | GI50 (OVCAR-5 ovarian): 0.182 µM | TGI (OVCAR-5 ovarian): > 100 µM | GI50 (OVCAR-8 ovarian): 0.0122 µM | TGI (OVCAR-8 ovarian): 1.02 µM | TGI (PC-3 prostate): > 100 µM | GI50 (RPMI-8226 leukemia): 0.561 µM | TGI (RPMI-8226 leukemia): > 100 µM | GI50 (RXF 393 renal): 0.0363 µM | GI50 (SF-268 CNS): 0.0378 µM | GI50 (SF-295 CNS): 0.0389 µM | TGI (SF-295 CNS): 0.0216 µM | GI50 (SF-539 CNS): 0.0167 µM | TGI (SF-539 CNS): 0.553 µM and 0.0633 µM | TGI (SK-MEL-2 melanoma): > 100 µM | TGI (SK-MEL-28 melanoma): > 100 µM | GI50 (SK-MEL-5 melanoma): 0.0392 µM | TGI (SK-MEL-5 melanoma): > 100 µM | GI50 (SK-OV-3 ovarian): 0.215 µM and 0.307 µM | TGI (SK-OV-3 ovarian): > 100 µM | GI50 (SN12C renal): 0.0391 µM | TGI (SN12C renal): 0.946 µM and 1.11 µM | GI50 (SNB-19 CNS): 0.0131 µM | TGI (SNB-19 CNS): 70.1 µM | GI50 (SNB-75 CNS): 0.247 µM and 0.0258 µM and 0.0306 µM | TGI (SNB-75 CNS): 0.944 µM | GI50 (SR leukemia): 0.0579 µM | GI50 (SW-620 colon): 0.342 µM and 0.325 µM | TGI (SW-620 colon): > 100 µM | GI50 (T-47D breast): 1.01 µM and 1.39 µM | GI50 (TK-10 renal): > 100 µM | TGI (TK-10 renal): > 100 µM | GI50 (U251 CNS): 0.0221 µM | TGI (U251 CNS): > 100 µM | TGI (UACC-257 melanoma): > 100 µM | GI50 (UACC-62 melanoma): 0.0383 µM | GI50 (UO-31 renal): 0.0175 µM | TGI (UO-31 renal): 0.685 µM and 0.433 µM and 0.327 µM

CC(C)(C)OC(=O)NC(Cc1ccc(OCc2ccccc2)cc1)C(=O)NC(COCc1ccccc1)C(=O)Oc1c(Cl)c(Cl)c(Cl)c(Cl)c1Cl (stereo unspecified)
TGI (A498 renal): 53.2 µM | TGI (A549 NSCLC): 89.7 µM | TGI (ACHN renal): 76.6 µM | TGI (BT-549 breast): 38.3 µM | TGI (CAKI-1 renal): 47.4 µM | TGI (CCRF-CEM leukemia): > 100 µM | TGI (COLO 205 colon): 36.5 µM | TGI (DU-145 prostate): 46.8 µM | TGI (EKVX NSCLC): 82.4 µM | TGI (HCC-2998 colon): 40.5 µM | TGI (HCT-116 colon): 30.1 µM | TGI (HCT-15 colon): 33.5 µM | TGI (HL-60(TB) leukemia): > 100 µM | TGI (HOP-62 NSCLC): 32.9 µM | TGI (HOP-92 NSCLC): 32.8 µM | TGI (HS 578T breast): 41.8 µM | TGI (HT29 colon): 69.7 µM | TGI (IGROV1 ovarian): 41.7 µM | TGI (K-562 leukemia): > 100 µM | TGI (KM12 colon): 39 µM | TGI (LOX IMVI melanoma): 53 µM | TGI (M14 melanoma): 42.9 µM | TGI (MALME-3M melanoma): 68.2 µM | TGI (MCF7 breast): 48.2 µM | TGI (MDA-MB-231 breast): 27.6 µM | TGI (MDA-MB-435): 56.7 µM | TGI (MDA-N): 80.8 µM | TGI (MOLT-4 leukemia): > 100 µM | TGI (NCI-H226 lung): 54.5 µM | TGI (NCI-H23 lung): 35.6 µM | TGI (NCI-H460 lung): 36.7 µM | TGI (NCI-H522 lung): 42 µM | TGI (NCI/ADR-RES ovarian): 50 µM | TGI (OVCAR-3 ovarian): 28.9 µM | TGI (OVCAR-4 ovarian): 85.3 µM | TGI (OVCAR-5 ovarian): 67.3 µM | TGI (OVCAR-8 ovarian): 52.6 µM | TGI (PC-3 prostate): 40.4 µM | TGI (RPMI-8226 leukemia): > 100 µM | TGI (RXF 393 renal): 63.9 µM | TGI (SF-268 CNS): 65.6 µM | TGI (SF-295 CNS): 52.4 µM | TGI (SF-539 CNS): 29.7 µM | TGI (SK-MEL-2 melanoma): 36.6 µM | TGI (SK-MEL-28 melanoma): 71.8 µM | TGI (SK-MEL-5 melanoma): 33.7 µM | TGI (SK-OV-3 ovarian): 46.9 µM | TGI (SN12C renal): 62.4 µM | TGI (SNB-19 CNS): > 100 µM | TGI (SNB-75 CNS): > 100 µM | TGI (SR leukemia): > 100 µM | TGI (SW-620 colon): 73 µM | TGI (T-47D breast): 88.5 µM | TGI (TK-10 renal): 85.8 µM | TGI (U251 CNS): 38.1 µM | TGI (UACC-257 melanoma): 84.8 µM | TGI (UACC-62 melanoma): 32.3 µM | TGI (UO-31 renal): 30.7 µM
